Laboratory results from PMC4721062, “Oxadiazole-2-oxides may have other functional targets, in addition to SjTGR, through which they cause mortality in Schistosoma japonicum” (Parasites & Vectors, 2016).
Where two headings read alike, the source gives them in different places.

Tests used:
adult S. japonicum = assay: microbe, parasite or virus in culture; format: cell-based; settings: for mortality at 25 µM / mortality at 50 µM / mortality at 10 µM / killing at 25 µM / killing at 50 µM / killing at 100 µM: Schistosoma japonicum; for mortality at 25 µM / mortality at 50 µM / mortality at 10 µM: read-out: Mortality of adult worms; for killing at 25 µM / killing at 50 µM / killing at 100 µM / Killing activity 24hr / Killing activity 48hr / Killing activity 72hr: adult worms
Outline: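 Adult worm pairs recovered by portal perfusion from ICR mice 35 days after infection with 50 cercariae, cultured in RPMI 1640 (pH 7.5, 20 mM HEPES, 10% FBS) at 37 °C, 5% CO2. Oxadiazole-2-oxides at 10, 25, 50, 100 μM; motility and survival scored microscopically at 24, 48, 72 h, death being no movement over 2 min; three independent experiments averaged.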

juvenile S. japonicum = assay: microbe, parasite or virus in culture; format: cell-based; settings: for mortality at 50 µM / killing at 2 µM / killing at 5 µM / killing at 50 µM: Schistosoma japonicum; for mortality at 50 µM: read-out: Mortality of juvenile worms; for killing at 2 µM / killing at 5 µM / killing at 50 µM / Killing activity 24hr / Killing activity 48hr / Killing activity 72hr: juvenile worms; for Killing activity 24hr / Killing activity 48hr / Killing activity 72hr: 10 μM
Outline: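 Juvenile S. japonicum, 20–30 tail-shed cercariae per well, were exposed to compounds at 2, 5, 10 and 50 μM in RPMI 1640 with 10% FBS and HEPES. Survival was scored microscopically at 24, 48 and 72 h, with death defined by disrupted internal structure or tegument or 1 min without motility. % D is dead/total, averaged over three experiments.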

[1] = 25 μM, 24 h, read-out: Killing activity 24hr
[2] = 25 μM, 48 h, read-out: Killing activity 48hr
[3] = 25 μM, 72 h, read-out: Killing activity 72hr
[4] = 24 h, read-out: Killing activity 24hr
[5] = 48 h, read-out: Killing activity 48hr
[6] = 72 h, read-out: Killing activity 72hr

Row | Compound | killing at 25 µM (adult S. japonicum; [2]) [%] | killing at 25 µM (adult S. japonicum; [3]) [%] | killing at 50 µM (adult S. japonicum; [4]) [%] | killing at 50 µM (adult S. japonicum; [5]) [%] | killing at 50 µM (adult S. japonicum; [6]) [%] | killing at 100 µM (adult S. japonicum; [4]) [%] | killing at 100 µM (adult S. japonicum; [5]) [%] | killing at 100 µM (adult S. japonicum; [6]) [%] | Killing activity 24hr (adult S. japonicum; 10 μM, 24 h) | Killing activity 48hr (adult S. japonicum; 10 μM, 48 h) | Killing activity 72hr (adult S. japonicum; 10 μM, 72 h) [%D] | mortality at 50 µM (juvenile S. japonicum; 24 h) [%] | killing at 2 µM (juvenile S. japonicum; [4]) [%] | killing at 2 µM (juvenile S. japonicum; [5]) [%] | killing at 2 µM (juvenile S. japonicum; [6]) [%] | killing at 5 µM (juvenile S. japonicum; [4]) [%] | killing at 5 µM (juvenile S. japonicum; [5]) [%] | killing at 5 µM (juvenile S. japonicum; [6]) [%] | killing at 50 µM (juvenile S. japonicum; [4]) [%] | killing at 50 µM (juvenile S. japonicum; [5]) [%] | also measured
1 | N#Cc1c(-c2ccc(Br)cc2)no[n+]1[O-] [Compound 7c] | 100 | 100 | 100 | 100 | 100 | 100 | 100 | 100 | n.e. | 70.0%D | 70.0 | > 70 | 100 | 100 | 100 | 100 | 100 | 100 | 100 | 100 | mortality at 25 µM (adult S. japonicum; 24 h): > 75%; mortality at 50 µM (adult S. japonicum; 24 h): 100%; mortality at 10 µM (adult S. japonicum; 72 h): 70 ± 7.1%; killing at 25 µM (adult S. japonicum; [1]): 77.8%; mortality at 50 µM (juvenile S. japonicum; 72 h): 100%; killing at 50 µM (juvenile S. japonicum; [6]): 100%; Killing activity 24hr (juvenile S. japonicum; 24 h): 100.0%D; Killing activity 48hr (juvenile S. japonicum; 48 h): 100.0%D; Killing activity 72hr (juvenile S. japonicum; 72 h): 100.0%D
2 | N#Cc1c(-c2ccc(O)cc2)no[n+]1[O-] [Compound 8] | 66.7 | 100 | 77.8 | 88.9 | 100 | 100 | 100 | 100 | n.e. | 57.1%D | 71.4 | < 30 | 12 | 18 | 21 | 12.8 | 23 | 46.2 | 26.8 | 28.2 | mortality at 10 µM (adult S. japonicum; 72 h): 71.4 ± 0.9%; killing at 25 µM (adult S. japonicum; [1]): 50%; killing at 50 µM (juvenile S. japonicum; [6]): 33.8%; Killing activity 24hr (juvenile S. japonicum; 24 h): 15.1%D; Killing activity 48hr (juvenile S. japonicum; 48 h): 23.3%D; Killing activity 72hr (juvenile S. japonicum; 72 h): 25.6%D
3 | N#Cc1c(-c2ccc(OCCBr)cc2)no[n+]1[O-] [Compound 12] | 100 | 100 | 88.9 | 100 | 100 | 100 | 100 | 100 | sluggish | sluggish | 55.6 | < 30 | 17.3 | 17.3 | 19.2 | 16.4 | 18.2 | 23.6 | 33.3 | 36.2 | mortality at 25 µM (adult S. japonicum; 24 h): > 75%; killing at 25 µM (adult S. japonicum; [1]): 80%; killing at 50 µM (juvenile S. japonicum; [6]): 72.5%; Killing activity 24hr (juvenile S. japonicum; 24 h): 21.3%D; Killing activity 48hr (juvenile S. japonicum; 48 h): 21.3%D; Killing activity 72hr (juvenile S. japonicum; 72 h): 28.8%D
4 | N#Cc1c(-c2ccc(OCCCBr)cc2)no[n+]1[O-] [Compound 13] | 100 | 100 | 100 | 100 | 100 | 100 | 100 | 100 | sluggish | 90.0%D | 100 | < 30 | 13 | 13 | 13 | 14.2 | 15.5 | 15.5 | 23.3 | 29.9 | mortality at 50 µM (adult S. japonicum; 24 h): 100%; Killing activity 24hr (adult S. japonicum; 25 μM, 24 h): sluggish; mortality at 50 µM (juvenile S. japonicum; 72 h): 41 ± 6.3%; killing at 50 µM (juvenile S. japonicum; [6]): 41%; Killing activity 24hr (juvenile S. japonicum; 24 h): 19.0%D; Killing activity 48hr (juvenile S. japonicum; 48 h): 19.0%D; Killing activity 72hr (juvenile S. japonicum; 72 h): 20.3%D
